Reference: patent US8993556B2, “Resorcinol derivatives as HSP90 inhibitors” (priority 2009, dated 2015)

Key:
[1] = test system: Her2 protein levels in BT474 breast cancer cells; assay: Her2 Degradation Assay; assay type: cell-based; settings: Homo sapiens, BT-474, 8 h, read-out: Her2 Degradation IC50 (μM)
Description: The potencies of the compounds of the present invention were evaluated by measuring the Her2 degradation as a marker for HSP90 inhibition.
HSP90 is a key component of a chaperone machinery that catalyzes the folding and quality control of several proteins. Its inhibition impairs the capacity to fold or stabilize its client proteins, leading to the proteosomal dependent degradation of these unfolded proteins. […] Cellular activity of HSP90 inhibitors was assessed by measuring the induced loss of Her2 protein levels in BT474 breast cancer cells (ATCC #HTB-20). Cellular Her2 levels were measured by immunocytochemistry, and quantified using an ArrayScan vTi instrument (Cellomics Thermo Scientific).
Cellular activity of HSP90 inhibitors was assessed by measuring the induced loss of Her2 protein levels in BT474 breast cancer cells (ATCC #HTB-20). Cellular Her2 levels were measured by immunocytochemistry, and quantified using an ArrayScan vTi instrument (Cellomics Thermo Scientific).
Studies were performed as follows: 5000 cells/well are seeded in 96 well plates (Perkin Elmer) in DMEM/5% FCS and incubated for 48 hours at 37° C., 5% CO2.
Medium is then replaced with fresh medium containing test compounds at the required concentration. Concentration curves are prepared in DMEM/10% FCS from compound stocks in DMSO, and final DMSO concentration is 0.1% (v/v). Duplicate wells for each concentration point are prepared, with a typical highest compound concentration of 30 μM. […] Plates are incubated for 20 minutes at room temperature, then wells are washed in PBS and cells permiabilised by incubating with PBS containing 0.3% Triton X-100 for 15 minutes at room temperature. Non-specific binding sites are blocked by incubating wells for 1 hour in PBS containing 3% (w/v) BSA. Wells are then incubated for 1 hour at room temperature in PBS containing anti Her2 mouse monoclonal (Anti-c-ErbB2/c-Neu, Mouse mAb 3B5, Calbiochem Cat N^o OP15) diluted 1:100 in 1% (w/v) BSA. […] After washing a further 3 times in PBS, cellular Her2 immunoreactivity is assessed using the ArrayScan vTi instrument, with a Zeiss 10× 0.5 N.A. objective, and applying the Cytotoxity.V3 algorithm (Cellomics/Thermo Fisher) with a XF100 filter. At least 10 fields, corresponding to at least 900 cells, are read for each well.
IC50 is the response; IC50 starts at Bottom and goes to Top with a sigmoid shape. In Vitro Cell Proliferation Assay

[2] = test system: A2780 human ovarian cells; assay: In Vitro Cell Proliferation Assay; assay type: cell-based; settings: Homo sapiens, A2780, 72 h, read-out: A2780 Proliferation IC50 (μM)
Description: The cells were incubated at 37° C. and 5% CO2 and after 72 hours the plates were processed using CellTiter-Glo assay (Promega) following the manufacturer's instruction.
CellTiter-Glo is a homogenous method based on the quantification of the ATP present, an indicator of metabolically active cells. ATP is quantified using a system based on luciferase and D-luciferin resulting into light generation. The luminescent signal is proportional to the number of cells present in culture.
Briefly 25 μL/well reagent solution are added to each wells and after 5 minutes shacking microplates are red by a luminometer. The luminescent signal is proportional to the number of cells present in culture.

His-HSP90 N-term domain = assay: Determination of KD Via Biacore; assay type: binding; settings: Biacore T100
Description: The evaluation of the binding affinity (KD) of the compounds of formula (I) to the HSP90 protein was done using Biacore T100.
His-HSP90 N-term domain was immobilized by capture of his tag by the Ab previously covalently bound to the chip (CM5) surface.
The compounds were analyzed using the following running buffer: 20 mM Tris/HCl pH 7.6, 150 mM KCl, 5 mM MgCl2, 0.05% P20 and 1% DMSO. The flow rate was 50 ul/min with and association time of 60 seconds.
The cpds were diluted in running buffer from 100× stock solution; the different conc injected were obtained from a sequential dilution in order to have the same DMSO conc. in each sample and avoid any solvent correction.

[3] = test system: human ovarian carcinoma cell line A2780 transplanted in immunodeficient mice; assay: In Vivo Antitumor Efficacy; parameters: species or system mouse; settings: A2780 in athymic mice
Description: Antitumor activity of HSP90 inhibitors was assessed in vivo using the human ovarian carcinoma cell line A2780 transplanted in immunodeficient mice.
Balb Nu/Nu, male mice, (athymic mice) from Harlan, Italy, were maintained in cages with paper filter covers, food and bedding sterilized and water acidified. A2780 tumors were maintained in vivo by serial transplantation and, at the time of efficacy experiments, implanted subcutaneously in athymic mice. The treatments started 8 days later when the tumors were palpable. HSP90 inhibitors were prepared immediately before use and administered intravenously in a volume of 10 ml/kg at different doses.
Tumor growth was assessed by caliper. The two diameters were recorded, and the tumor weight was calculated according to the following formula: length (mm)×width^2 (mm)/2. The effect of the antitumor treatment was determined as tumor growth inhibition (TGI %) of treated group respect to vehicle treated controls.

in vivo = settings: Mouse Balb Nu/Nu, single
Description: Calibration Standards and Quality Controls were prepared spiking blank mouse plasma with appropriate working solutions.
Sample plasma proteins were precipitated by adding 160 μL of acetonitrile/methanol 90/10 to 20 μL of mouse plasma in a 96 well plate.
After heat sealing and mixing for 3 minutes, the plate was centrifuged for 15 minutes at 4000 rpm.
The supernatant was considered as final extract and injected onto the LC-MS-MS system.
• UPLC system: Waters Acquity BSM • Mobile phase A: 95:5-5 mM Ammonium Formate pH3.5: Acetonitrile • Mobile phase B: 5:95-5 mM Ammonium Formate pH3.5: Acetonitrile • Analytical column: BEH C18 50×2.1 1.7 μm • Elution conditions:
• Total Run Time: 2.0 min. • Flow rate: 0.500 mL/min • Approximate retention time: NMS-03308086: 0.67 min. • Column oven temp: 40° C. • Autosampler type: Waters Acquity SM • Injection volume: 3 μL • Injection mode: Partial Loop with Needle Overfill • Autosampler temperature: 5° C. • MS instrument: Waters TQD • Ionisation: ES+ • Capillary: 1.5 kV • Cone: 70 V • Source Temperature: 150° C. • Desolvation Flow and Temp.: 900 L/h-400° C. • Collision Gas Flow: 0.2 mL/min • Collision Energy: 40 • MRM transitions: NMS-03308086: m/z 579.1>m/z 97.0 • Dwell Time: 0.1 seconds • LLOQ: 5.0 ng/mL • ULOQ: 5000 ng/mL • Software used: Mass Lynx 4.1 SCN627

Compound	IC50 [1] [µM]	IC50 [2] [µM]	Kd (His-HSP90 N-term domain) [nM]	TGI ([3]; intravenously at 30 mg/Kg daily) [%]	TGI ([3]; intravenously at 40 mkg/kg every three days) [%]	clearance (in vivo; 10 mg/kg IV bolus, read-out: CL (mL/h/kg) Plasma clearance (converted)) [mL/h/kg]	half-life (in vivo; 10 mg/kg IV bolus, read-out: T1/2 (h) Terminal half-life (converted)) [h]	Vd (in vivo; 10 mg/kg IV bolus, read-out: Vdss (mL/kg) Volume of distribution at steady state) [mL/kg]	bioavailability (in vivo; 10 mg/kg oral vs 10 mg/kg IV, read-out: F % Oral bioavailability) [%]
CN(C)c1ccc(Oc2cc(O)cc(O)c2-c2cc(C(=O)NC3CCN(C4CCC5(CC4)OCCCO5)CC3)no2)cc1 [5-{2-[4-(Dimethylamino)phenoxy]-4,6-dihydroxyphenyl}-N-[1-(1,5-dioxaspiro[5.5]undec-9-yl)piperidin-4-yl]isoxazole-3-carboxamide]	0.038	0.021	0.079	92	–	–	–	–	–
CN1CCC(NC(=O)c2cc(-c3c(O)cc(O)cc3Oc3ccc(N(C)C)cc3)no2)CC1 [3-{2-[4-(Dimethylamino)phenoxy]-4,6-dihydroxyphenyl}-N-(1-methylpiperidin-4-yl)isoxazole-5-carboxamide]	0.008	0.03	0.066	–	88	3430	5.12	12500	25
